# Measured values from ChEMBL document CHEMBL3044607, “Quantitative structureactivity relationships of imidacloprid and its analogs with substituents at the C5 position on the pyridine ring in the neuroblocking activity” (J Pestic Sci, 2006).
# Test system: Periplaneta americana
# Assay: Insecticidal activity against Periplaneta americana (American cockroach) assessed as neuroblocking concentration
# Assay type: functional
row,Compound,log(1/BC)
1,O=[N+]([O-])/N=C1\NCCN1Cc1cnc(Cl)c(Cl)c1 [5-CHLOROIMIDACLOPRID],5.61
2,CCc1cc(CN2CCN/C2=N\[N+](=O)[O-])cnc1Cl,4.66
3,CC(C)Oc1cc(CN2CCN/C2=N\[N+](=O)[O-])cnc1Cl,4.46
4,O=[N+]([O-])/N=C1/NCCN1Cc1cnc(Cl)c(F)c1 [5-FLUOROIMIDACLOPRID],5.99
5,COC(=O)c1cc(CN2CCN/C2=N\[N+](=O)[O-])cnc1Cl,3.92
6,O=[N+]([O-])/N=C1\NCCN1Cc1cnc(Cl)c(-c2ccccc2)c1,4.46
7,Cc1cc(CN2CCN/C2=N\[N+](=O)[O-])cnc1Cl,5.25
8,CCOc1cc(CN2CCN/C2=N\[N+](=O)[O-])cnc1Cl,4.66
9,O=[N+]([O-])/N=C1\NCCN1Cc1cnc(Cl)c(C(F)(F)F)c1,4.43
10,O=[N+]([O-])/N=C1\NCCN1Cc1cnc(Cl)c(Br)c1,5.51
11,CCCCc1cc(CN2CCN/C2=N\[N+](=O)[O-])cnc1Cl,3.79
12,O=[N+]([O-])/N=C1\NCCN1Cc1cnc(Cl)c(I)c1,5.3
13,[N-]=[N+]=Nc1cc(CN2CCN/C2=N\[N+](=O)[O-])cnc1Cl [5-AZIDOIMIDACLOPRID],4.98
14,COc1cc(CN2CCN/C2=N\[N+](=O)[O-])cnc1Cl,4.98
15,O=[N+]([O-])/N=C1\NCCN1Cc1ccc(Cl)nc1 [IMIDACLOPRID],5.7
16,CCCCCOc1cc(CN2CCN/C2=N\[N+](=O)[O-])cnc1Cl,3.59
17,CCCCOc1cc(CN2CCN/C2=N\[N+](=O)[O-])cnc1Cl,4.58
18,CCCOc1cc(CN2CCN/C2=N\[N+](=O)[O-])cnc1Cl,4.56
19,CCCc1cc(CN2CCN/C2=N\[N+](=O)[O-])cnc1Cl,4.51
20,O=[N+]([O-])/N=C1\NCCN1Cc1cnc(Cl)c([N+](=O)[O-])c1,3.6
21,N#Cc1cc(CN2CCN/C2=N\[N+](=O)[O-])cnc1Cl,4.59
